Assay results taken from patent US9096582B2, “Gamma secretase modulators” (MERCK SHARP & DOHME CORP, priority 2011, dated 2015).

Experiments:
[1] = biological target: T1, γ-secretase (Homo sapiens, UniProt P49768); test: Cell based γ-secretase assay (Aβ42 in conditioned media, MSD sandwich immunoassay); settings: HEK 293 cells stably transfected with APPsw-lon; 5 hrs treatment; means of two independent experiments
T1 construct: Human embryonic kidney (HEK) 293 cells stably transfected with APPsw-lon in pcDNA3.1 vector; endogenous in cells; host or cells: HEK293 cells stably transfected with APPsw-lon (substrate only) in pcDNA3.1
Description: Cell Based γ-Secretase Assay (In Vitro Assay Method)
Human embryonic kidney (HEK) 293 cells stably transfected with APPsw-lon in pcDNA3.1 vector (Invitrogen) were treated with gamma secretase modulator (GSM) compounds (see Table below) for 5 hrs. Aβ in conditioned media was measured using MesoScale Discovery (MSD) technology based sandwich immunoassays. Aβ42 was measured using a pair of labeled antibodies TAG-G2-11 (described in Ida, N. et al., Journal of Biological Chemistry, 1996, 271, p. 22908-22914) and biotin-4G8 (Covance); γ-secretase activity is expressed as the concentration of compound producing 50% inhibition of the enzyme activity. The data presented below in the Table were the means of two independent experiments.

[2] = system: Rat CSF Aβ42; test: Cerebrospinal fluid (CSF) Aβ analysis (in vivo assay method); settings: male CD rats; oral, 30 mg/kg in 20% hydroxypropyl β-cyclodextrin; CSF collected three hours after dosing
Description: Cerebrospinal Fluid (CSF) Aβ Analysis (In Vivo Assay Method)
Male CD rats (100 g; Charles River Laboratories) were orally administered a GSM compound (formulated in 20% hydroxypropyl β-cyclodextin; 5 ml/kg). Three hours later, the animals were euthanized with excess CO2, and CSF was immediately collected from the cisterna magna and frozen on dry ice; only clear samples were analyzed. Rat CSF Aβ42 was analyzed using AlphaLISA Amyloid Assay kits (Perkin-Elmer) according to the manufacturer's instructions. In vivo activity of the tested GSM compounds is expressed as the percentage of Aβ42 reduction in CSF after administration of the compound and is presented in the Table.

| IC50 [1] [nM] | Compound | % CSF Aβ42 Reduction After 30 mg/kg Dosing [2] [%] |
| --- | --- | --- |
| 295 | COc1cc(-c2noc3c2CCCC3Oc2ccc(F)cc2)ccc1-n1cnc(C)c1 (racemic) [7-(4-Fluorophenoxy)-3-(3-methoxy-4-(4-methyl-1H-imidazol-1-yl)phenyl)-4,5,6,7-tetrahydrobenzo[d]isoxazole] |  |
| 113 | COc1cc(-c2noc3c2CCCC3c2cc(F)cc(F)c2)ccc1-n1cnc(C)c1 (racemic) [7-(3,5-Difluorophenyl)-3-(3-methoxy-4-(4-methyl-1H-imidazol-1-yl)phenyl)-4,5,6,7-tetrahydrobenzo[d]isoxazole] | 0 |
| 12200 | CNC1CCCc2c(-c3ccc(-n4cnc(C)c4)c(OC)c3)noc21 (racemic) |  |
| 29.4 | COc1cc(-c2noc3c2CCCC3NCc2cc(F)cc(F)c2)ccc1-n1cnc(C)c1 (single isomer, unassigned) [drawing 34] | 20 |
| 403 | COc1cc(-c2noc3c2CCCC3Nc2ccc(F)cc2)ccc1-n1cnc(C)c1 (single isomer, unassigned) [drawing 26, N-(4-Fluorophenyl)-3-(3-methoxy-4-(4-methyl-1H-imidazol-1-yl)phenyl)-4,5,6,7-tetrahydrobenzo[d]isoxazol-7-amine] | 37 |
| 514 | COc1cc(-c2noc3c2CCCC3OCc2cc(F)cc(F)c2)ccc1-n1cnc(C)c1 (racemic) [7-(3,5-Difluorobenzyloxy)-3-(3-methoxy-4-(4-methyl-1H-imidazol-1-yl)phenyl)-4,5,6,7-tetrahydrobenzo[d]isoxazole] |  |
| 150 | COc1cc(-c2noc3c2CCCC3(O)Cc2cc(F)cc(F)c2)ccc1-n1cnc(C)c1 (racemic) |  |
| 464 | COc1cc(-c2noc3c2CCCC3NCC(F)(F)F)ccc1-n1cnc(C)c1 (racemic) |  |
| 644 | COc1cc(-c2noc3c2CCCC3NCc2cc(F)cc(F)c2)ccc1-n1cnc(C)c1 (single isomer, unassigned) [drawing 33] | 7 |
| 131 | COc1cc(-c2noc3c2CCCC3NCc2ccc(F)cc2)ccc1-n1cnc(C)c1 (racemic) |  |
| 311 | COc1cc(-c2noc3c2CCCC3NC2CCCCC2)ccc1-n1cnc(C)c1 (racemic) |  |
| 255 | COc1cc(-c2noc3c2CCCC3N[C@H](C)c2ccc(F)cc2)ccc1-n1cnc(C)c1 (mixture of isomers) |  |
| 39.4 | COc1cc(-c2noc3c2CCCC3Nc2ccc(F)cc2)ccc1-n1cnc(C)c1 (single isomer, unassigned) [drawing 25, N-(4-Fluorophenyl)-3-(3-methoxy-4-(4-methyl-1H-imidazol-1-yl)phenyl)-4,5,6,7-tetrahydrobenzo[d]isoxazol-7-amine] | 58 |
| 319 | COc1cc(-c2noc3c2CCCC3N(C)Cc2ccc(F)cc2)ccc1-n1cnc(C)c1 (racemic) |  |
| 205 | COc1cc(-c2noc3c2CCCC3Oc2cc(F)cc(F)c2)ccc1-n1cnc(C)c1 (racemic) |  |

| Compound | IC50 [1] [nM] | % CSF Aβ42 Reduction After 30 mg/kg Dosing [2] [%] |
| --- | --- | --- |
| COc1cc(-c2noc3c2CCCC3(O)c2cc(F)cc(F)c2)ccc1-n1cnc(C)c1 (racemic) [7-(3,5-Difluorophenyl)-3-(3-methoxy-4-(4-methyl-1H-imidazol-1-yl)phenyl)-4,5,6,7-tetrahydrobenzo[d]isoxazol-7-ol] | 189 | 19 |
